Results as given in patent publication US20120129872A1, “FUSED HETEROARYL INHIBITORS OF PRO-MATRIX METALLOPROTEINASE ACTIVATION” (priority 2010, published 2012).

Key:
MMP9 [1] = target: T1, MMP9 (Homo sapiens, UniProt P14780); experiment: Activation of proMMP9 by human fetal lung fibroblast (HFL-1) cultures (Western blot); assay type: cell-based; conditions: 3.3 μM, HFL-1, mAb-L51/82
T1 construct: host or cells: HFL-1 human fetal lung fibroblasts
Protocol: Activation of proMMP9 by human fetal lung fibroblast cultures Compound-α was assessed additionally for ability to block the maturation of proMMP9 to active MMP9 in cultures of human fetal lung fibroblasts (HFL-1, American Type Culture Collection #CCL-153). Unlike rat synoviocytes, HFL-1 cells were unable to process proMMP9 to the active form without addition of neutrophil elastase. […] Rather, the function of elastase in this assay may be to inactivate tissue inhibitors of matrix metalloproteinases (TIMPs) that repress endogenous pathways of MMP9 activation (Am J Respir Crit. Care Med; 1999; 159:1138-46).
HLF-1 were maintained in monolayer culture in DMEM with 10% FCS and were used between passage numbers 5-15. HLF-1 were embedded in collagen gels as described for rat SCW synoviocytes (vida supra). Half mL gels containing 0.4 million cells were dislodged into wells of 12 well Costar plates containing 1 mL/well of DMEM adjusted to contain 0.05% BSA and 100 ng/mL human TNFα (R&D Systems Cat #210-TA/CF). After overnight culture (37° C. and 5% CO2) wells were adjusted to contain an additional 0.5 mL of DMEM containing 0.05% BSA and with or without 13.2 μM Compound-α (final concentration was 3.3 μM Compound-α). Next, cultures were adjusted to contain 30 nM human elastase (Innovative Research). The plates were cultured an additional 72 hrs, at which time MMP9 secreted into the conditioned media was bound to gelatin-sepharose and evaluated by Western blot analysis as described for the rat synoviocyte cultures (vida supra). mAb-51/82 detected three forms of MMP9 in HFL-1 cultures.
These included a form of approximately 100 kD with mobility similar to recombinant rat proMMP9, an approximately 80 kD form with mobility similar to rat active MMP9, and an approximately 86 kD intermediate form. In the absence of Compound-α, most of the MMP9 was present as the 80 kD form. In the presence of Compound-α, the 80 kD form was a minor fraction of the total signal while nearly half of the signal were contributed each by the 100 kD and 86 kD forms. […]
A second experiment was performed to determine if the 80 kD form was mature active MMP9 and to determine the potency of Compound-α as an inhibitor of MMP9 maturation in this assay. HFL-1 cells embedded in collagen gels were cultured as described above in the presence of TNFα overnight and the cultures were then adjusted to contain 30 nM elastase and graded concentrations of Compound-α for an additional 72 hrs at which time MMP9 secreted into the conditioned media was bound to gelatin-sepharose and evaluated by Western blot analysis for active MMP9 using pAb-1246 raised against the N-terminal neoepitope of active MMP9 (Table 5). In the absence of Compound-α, pAb-1246 readily detected MMP9 with an electrophoretic mobility of approximately 80 kD. […]

MMP9 [2] = target: T2, MMP9 (Rattus norvegicus, UniProt P50282); experiment: Pro and active MMP9 in ankles of rats with SCW-induced arthritis (Western blot); assay type: in vivo
T2 construct: endogenous in cells; host or cells: primary synoviocytes from arthritic female Lewis rats
Protocol: Hind-limbs were skinned, severed just above the tibia-tarsus joint and below the metatarsals, and the tibia-tarsus joints (ankles) were weighed, snap frozen and pulverized on dry ice using a hammer and anvil. The pulverized tissue was suspended in 3 volumes (w:v) of ice-cold homogenization buffer containing 50 mM Tris pH 7.5, 150 mM NaCl, 5 mM EDTA, 1% Triton X100, 0.05% Brij 30, 10% dimethylsulfoxide and Complete EDTA-free Protease Inhibitor Cocktail (Roche Diagnostics). The suspended tissue was homogenized sequentially with a Kinematica AG Polytron and a Dounce homogenizer. Homogenates were centrifuged at 16,000×g for 10 min at 4° C. and the soluble fractions were saved. Dimethylsulfoxide was removed from a portion of each soluble fraction using PD MiniTrap™ G-25 desalting columns (GE Healthcare). Homogenates (0.25 mL), free of DMSO, were diluted with an equal volume of binding buffer (i.e., homogenization buffer without dimethylsufoxide) and adjusted to contain 50 μL of a 50% slurry of gelatin-conjugated sepharose. Following 2 hours of rotation at 4° C. the beads were washed twice in binding buffer and eluted in 100 μL 2×-reducing Laemmli buffer with heating to 95° C. for 5 minutes. […]

T1 sequence (P14780 94-707): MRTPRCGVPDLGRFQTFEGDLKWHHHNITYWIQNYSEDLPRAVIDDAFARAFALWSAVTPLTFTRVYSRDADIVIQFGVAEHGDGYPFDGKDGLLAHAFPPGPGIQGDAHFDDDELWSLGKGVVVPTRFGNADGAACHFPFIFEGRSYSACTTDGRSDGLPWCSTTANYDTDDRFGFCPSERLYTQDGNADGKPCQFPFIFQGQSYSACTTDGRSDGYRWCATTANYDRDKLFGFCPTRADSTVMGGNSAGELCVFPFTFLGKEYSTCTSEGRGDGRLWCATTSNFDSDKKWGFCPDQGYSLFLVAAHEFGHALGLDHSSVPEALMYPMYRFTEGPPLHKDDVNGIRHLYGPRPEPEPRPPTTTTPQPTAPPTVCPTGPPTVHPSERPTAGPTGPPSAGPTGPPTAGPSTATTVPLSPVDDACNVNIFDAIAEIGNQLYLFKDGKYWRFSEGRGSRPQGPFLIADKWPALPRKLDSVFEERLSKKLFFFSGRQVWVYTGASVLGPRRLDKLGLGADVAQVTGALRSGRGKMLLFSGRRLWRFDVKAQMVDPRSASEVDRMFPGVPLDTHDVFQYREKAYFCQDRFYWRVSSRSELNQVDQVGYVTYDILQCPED
T2 sequence (P50282 108-708): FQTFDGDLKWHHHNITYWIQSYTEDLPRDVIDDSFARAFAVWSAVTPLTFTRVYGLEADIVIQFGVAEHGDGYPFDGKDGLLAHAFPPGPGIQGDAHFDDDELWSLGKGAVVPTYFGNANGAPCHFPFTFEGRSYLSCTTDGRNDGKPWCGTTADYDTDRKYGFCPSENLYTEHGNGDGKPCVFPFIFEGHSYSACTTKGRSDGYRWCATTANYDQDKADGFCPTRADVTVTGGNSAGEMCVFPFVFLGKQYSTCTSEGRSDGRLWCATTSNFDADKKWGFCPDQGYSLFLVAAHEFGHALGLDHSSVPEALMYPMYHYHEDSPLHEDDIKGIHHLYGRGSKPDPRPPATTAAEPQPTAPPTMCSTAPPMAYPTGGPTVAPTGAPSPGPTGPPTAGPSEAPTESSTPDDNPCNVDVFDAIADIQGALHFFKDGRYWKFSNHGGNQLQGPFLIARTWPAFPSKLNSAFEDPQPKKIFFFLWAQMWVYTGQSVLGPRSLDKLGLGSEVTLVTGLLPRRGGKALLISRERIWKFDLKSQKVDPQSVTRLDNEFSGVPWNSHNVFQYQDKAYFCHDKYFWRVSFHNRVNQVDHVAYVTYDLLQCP

Cc1nc(C)c(-c2csc(Nc3cc(S(N)(=O)=O)ccc3OC(C)C)n2)s1 [Compound-α, 3-(2′,4′-Dimethyl-[4,5′]bithiazolyl-2-ylamino)-4-isopropoxy-benzenesulfonamide•HBr]
Percent of total signal, 80 kD (MMP9 [1]): 7% | Percent of total signal, 86 kD (MMP9 [1]): 47% | Percent of total signal, 100 kD (MMP9 [1]): 46% | Signal, Total (MMP9 [1]): 91346 INT * mm^2 | Abundance of proMMP9 in ankles (MMP9 [2]; Day 26, FIG. 3A lanes 4-9): did not reduce the abundance of proMMP9 | Abundance of proMMP9 in ankles (MMP9 [2]; Day 26, FIG. 3A lanes 4-9, listed as Compound a): did not reduce the abundance of proMMP-9
